How the values were obtained:
[1] = test system: cultured embryonic rat cortical neurons; test: Neuritogenesis experiments (Sholl analysis) in cortical cultures; assay type: cell-based; conditions: for promoting neuritogenesis: cultured embryonic rat cortical neurons, DIV6, 10 μM (0.1% DMSO) unless noted otherwise, 72 h treatment, FIGS. 1B-1D, 2B-2D
Protocol: (§1) Primary cortical cultures were prepared using tissue from embryonic day 18 (E18) Sprague Dawley rats. Cells were plated at various densities on poly-D-lysine coated plates depending on the specific experiment (vide infra). Plating media consisted of 10% heat-inactivated FBS (Life Technologies), 1% penicillin-streptomycin (Life Technologies), and 0.5 mM glutamine (Life Technologies) in Neurobasal (Life Technologies). After 15-24 h, the media was removed and exchanged for replacement media containing 1×B27 supplement (Life Technologies), 1% penicillin-streptomycin, 0.5 mM glutamine, 12.5 μM glutamate, and Neurobasal. After 96 h, 50% of the media was removed and replaced with feed media containing 1×B27 supplement, 1% penicillin-streptomycin, and 0.5 mM glutamine. Once per week until the cultures had reached sufficient maturity for experiments, 50% of the culture media was removed and replaced with feed media, with an additional 20% by volume being added to account for evaporation. For experiments using antagonists/inhibitors, cells were pretreated with ANA-12 (10 μM), rapamycin (100 nM), and ketanserin (100 μM) for 10 min prior to the addition of test compounds. The final DMSO concentration of these experiments was 0.2%. The neurons used in each cellular experiment were taken from at least two different treatment wells and the wells were randomized to account for plate effects. All of the cellular experiments were replicated on at least two occasions by two or more experimenters.
All compounds were dissolved in DMSO and diluted 1:1000 with the exception that BDNF was dissolved in water. Cells were treated with the compound at a final concentration of 90 μM (0.1% DMSO) while all other compounds were treated at 10 μM (0.1% DMSO) unless noted otherwise. For in vivo studies, the compound was dissolved in sterile 0.9% saline and administered intraperitoneally at a dose of 10 mg/kg and an injection volume of 10 mL/kg.
After 3 days in vitro (DIV 3), approximately 50,000 cells/well in poly-D-lysine coated 24 well plates were treated. Treatment was accomplished by first diluting DMSO stock solutions of compounds 1:10 in Neurobasal followed by a 1:100 dilution into each well (total dilution=1:1000). After 72 h, cells were fixed by removing 80% of the media and replacing it with a volume of 4% aqueous paraformaldehyde (Alfa Aesar) equal to 50% of the working volume of the well. Then, the cells were allowed to sit for 20 min at room temperature before the fixative was aspirated and each well washed twice with DPBS. Cells were permeabilized using 0.2% Triton X-100 (ThermoFisher) in DPBS for 20 minutes at room temperature without shaking. Plates were blocked with antibody diluting buffer (ADB) containing 2% bovine serum albumin (BSA) in DPBS for 1 h at room temperature. Then, plates were incubated overnight at 4° C. with gentle shaking in ADB and a chicken anti-MAP2 antibody (1:10,000; EnCor, CPCA-MAP2). The next day, plates were washed three times with DPBS and once with 2% ADB in DPBS. Plates were incubated for 1 h at room temperature in ADB containing an anti-chicken IgG secondary antibody conjugated to Alexa Fluor 488 (Life Technologies, 1:500) and washed five times with DPBS. After the final wash, 500 μL of DPBS was added per well and imaged on a Leica inverted epifluorescence microscope at 40× magnification. Images were analyzed using the Simple Neurite Tracer and Sholl analysis plug-ins for ImageJ Fiji (version 1.51N). All images were taken and analyzed by an experimenter blinded to treatment conditions.

[2] = test system: cultured embryonic rat cortical neurons; test: Spinogenesis experiments (spine density) in cortical cultures; assay type: cell-based; conditions: cortical cultures treated for 24 h at DIV 18; FIG. 1E and FIG. 2E
Protocol: as §1, with “The final DMSO concentration of these experiments was 0.2%. The neurons used in each cellular experiment were taken from at least two different treatment wells and the wells were randomized to account for plate effects. All of the cellular experiments were replicated on at least two occasions by two or more experimenters.” left out
Cells were plated at a density of 35,000 cells/well on glass coverslips in 24 well plates. […] Dendritic spines were counted manually by a trained experimenter who was blinded to the treatment conditions.

BDNF = BDNF ELISA assay in cortical neurons; assay type: cell-based, rat
Protocol: as §1
Cortical cultures were grown in 6-well plates (600,000 cells per well). At DIV 17-18, all media was removed and replaced with fresh Neurobasal. After 4 h, each well was treated with compound dissolved in DMSO (1:1000) for 24 h. After the treatment period, the media was removed and the cells washed once with ice-cold DPBS. To each well was added 200 μL of Cell Extraction Buffer (Life Technologies) supplemented with cOmplete and PhoSTOP inhibitors, and incubated on ice for 5-10 min. Plates were scrapped and the contents collected. […]

Molecule	promoting neuritogenesis [1]	spinogenesis in cortical cultures [2]	other results
CN(C)CCc1c[nH]c2cc(F)ccc12 [6-fluoro-DMT, 6-fluoro-N,N-dimethyltryptamine]	capable of robustly promoting neuritogenesis		
COc1ccc2c(CCN(C)C)c[nH]c2c1 [6-methoxy-DMT, 6-methoxy-N,N-dimethyltryptamine]	capable of robustly promoting neuritogenesis		
CCN(CC)C(=O)N[C@H]1C=C2c3cccc4[nH]cc(c34)C[C@H]2N(C)C1 [lisuride, Lisuride]	capable of robustly promoting neuritogenesis	increased spinogenesis	dose-response of effects on neurite outgrowth ([1]; cortical cultures, dose response was not clearly observed, FIGS. 3A and 3B): exhibiting activity across 8-orders of magnitude into the femtomolar range; BDNF protein levels in the presence of TrkB antagonist ANA-12 (BDNF; cortical cultures, 24 h treatment, with ANA-12, FIG. 6): negates the increase in BDNF protein levels; protein levels of BDNF protein (BDNF; cortical neurons, after 24 hours treatment, ELISA, FIG. 5): increased the protein levels of BDNF protein; translation of BDNF on co-treatment with sigma antagonist BD1063 (BDNF; cultured cortical neurons co-treated with BD1063, 24 hour treatment, FIG. 7): completely blocked the increased translation of BDNF
CN(C)CCc1c[nH]c2ccc(Cn3cncn3)cc12 [rizatriptan, Rizatriptan]	capable of robustly promoting neuritogenesis	increased spinogenesis	
BDNF: brain-derived neurotrophic factor, recombinant neurotrophin, Sigma-Aldrich (protein, UniProt P23560 19-247, looked up) Neurotrophic factor BDNF …: APMKEANIRGQGGLAYPGVRTHGTLESVNGPKAGSRGLTSLADTFEHVIEELLDEDQKVRPNEENNKDADLYTSRVMLSSQVPLEPPLLFLLEEYKNYLDAANMSMRVRRHSDPARRGELSVCDSISEWVTAADKKTAVDMSGGTVTVLEKVPVSKGQLKQYFYETKCNPMGYTKEGCRGIDKRHWNSQCRTTQSYVRALTMDSKKRIGWRFIRIDTSCVCTLTIKRGR			dose response of effects on dendritic arbor complexity ([1]; recombinant BDNF 50 ng/mL vs 100-fold dilution, FIG. 4): significantly less potent following a 100-fold dilution
